This is an account of results in US7728012B2, “Carboxamide compounds and their use as calpain inhibitors” (Abbott GmbH & Co. KG, priority 2006, dated 2010).

Type in all cases: biochemical
The target of assay [1] is T1, recombinant human cathepsin S (Homo sapiens, UniProt P25774).
T1 construct: purchased Calbiochem 219343; host or cells: E. coli
The assay can be described thus: Cathepsin S kinetic fluorescence enzyme inhibition assay. The following applies: selectivity ratio versus calpain I. Summed up: (§1)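 cat B 0.25 nM + Z-Phe-Arg-AMC 100 μM; cat L 1 nM + Z-Phe-Arg-AMC 2 μM; cat S 0.5 nM (E. coli-expressed) + Z-Val-Val-Arg-AMC 20 μM. 50 mM MES pH 6.0, 2.5 mM L-Cys, RT. Ex 390/em 460, kinetic; Ki app = Cheng-Prusoff from IC50, mean of 2–4 curves.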

The target in assay [2] is T2, calpain-I isolated from human erythrocytes (Homo sapiens, UniProt P07384).
T2 construct: calpain-I—isolated from human erythrocytes; purchased Calbiochem 208713; host or cells: human erythrocytes (tissue isolate)
T2 sequence (P07384 1-714): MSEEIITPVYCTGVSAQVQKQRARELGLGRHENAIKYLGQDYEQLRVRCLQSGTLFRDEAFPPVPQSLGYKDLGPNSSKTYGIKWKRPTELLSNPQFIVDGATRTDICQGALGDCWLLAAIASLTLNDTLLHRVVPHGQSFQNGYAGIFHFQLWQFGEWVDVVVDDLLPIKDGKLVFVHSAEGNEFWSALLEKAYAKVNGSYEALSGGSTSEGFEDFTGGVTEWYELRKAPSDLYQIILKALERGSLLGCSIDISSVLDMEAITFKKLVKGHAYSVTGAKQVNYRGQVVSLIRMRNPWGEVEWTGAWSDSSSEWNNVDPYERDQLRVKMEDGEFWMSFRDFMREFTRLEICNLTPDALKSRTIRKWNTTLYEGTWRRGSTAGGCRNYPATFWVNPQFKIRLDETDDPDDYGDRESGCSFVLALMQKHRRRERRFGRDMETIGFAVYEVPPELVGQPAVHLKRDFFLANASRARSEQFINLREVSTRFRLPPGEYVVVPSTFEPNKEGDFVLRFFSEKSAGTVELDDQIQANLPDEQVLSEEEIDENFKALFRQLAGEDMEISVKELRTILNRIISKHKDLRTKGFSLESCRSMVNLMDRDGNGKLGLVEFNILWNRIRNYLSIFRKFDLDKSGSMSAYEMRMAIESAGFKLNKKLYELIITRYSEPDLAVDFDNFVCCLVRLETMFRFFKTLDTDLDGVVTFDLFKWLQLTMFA
T2 sequence (P04632 1-268 partner): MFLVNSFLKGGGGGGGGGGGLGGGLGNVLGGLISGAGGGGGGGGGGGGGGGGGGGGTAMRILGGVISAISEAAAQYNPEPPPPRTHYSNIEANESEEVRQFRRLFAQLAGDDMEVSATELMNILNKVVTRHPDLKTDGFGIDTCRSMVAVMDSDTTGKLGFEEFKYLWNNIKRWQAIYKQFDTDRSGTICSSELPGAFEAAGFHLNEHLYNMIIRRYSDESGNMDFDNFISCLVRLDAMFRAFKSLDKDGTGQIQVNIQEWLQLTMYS
The experiment in a line: Calpain I kinetic fluorescence enzyme inhibition assay. The following applies: apparent Ki from IC50 by Cheng-Prussoff; average of 2 to 4 dose-effect plots.

Assay [3] has as its target T3, cathepsin L isolated from human liver (Homo sapiens, UniProt P07711).
T3 construct: cathepsin L—isolated from human liver; purchased Calbiochem 219402; host or cells: human liver (tissue isolate)
The experiment in a line: Cathepsin L kinetic fluorescence enzyme inhibition assay. The note with it: selectivity ratio versus calpain I. A digest of the protocol:
as §1

Assay [4] has as its target T4, cathepsin B isolated from human liver (Homo sapiens, UniProt P07858).
T4 construct: cathepsin B—isolated from human liver; purchased Calbiochem 219362; host or cells: human liver (tissue isolate)
The experiment in a line: Cathepsin B kinetic fluorescence enzyme inhibition assay. The following applies: selectivity ratio versus calpain I. A digest of the protocol:
as §1

In assay [5] the target is T5, cathepsin K activated from recombinant human procathepsin K (Homo sapiens, UniProt P43235).
T5 construct: purchased Calbiochem 342001; host or cells: E. coli
T5 sequence (P43235 115-329): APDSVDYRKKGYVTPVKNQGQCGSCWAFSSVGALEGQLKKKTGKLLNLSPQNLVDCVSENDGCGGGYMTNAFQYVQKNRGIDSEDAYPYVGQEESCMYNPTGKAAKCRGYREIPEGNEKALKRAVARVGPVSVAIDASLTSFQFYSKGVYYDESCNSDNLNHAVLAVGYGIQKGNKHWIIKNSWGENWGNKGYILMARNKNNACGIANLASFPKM
The assay can be described thus: Cathepsin K kinetic fluorescence enzyme inhibition assay. The note with it: selectivity ratio versus calpain I.

T3 sequence (P07711 114-333): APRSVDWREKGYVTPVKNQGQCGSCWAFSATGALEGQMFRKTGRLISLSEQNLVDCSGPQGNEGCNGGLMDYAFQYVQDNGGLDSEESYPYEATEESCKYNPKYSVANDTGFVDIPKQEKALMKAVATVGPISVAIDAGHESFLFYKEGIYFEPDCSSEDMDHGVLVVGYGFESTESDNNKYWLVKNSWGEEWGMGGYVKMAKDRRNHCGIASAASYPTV
T1 sequence (P25774 115-331): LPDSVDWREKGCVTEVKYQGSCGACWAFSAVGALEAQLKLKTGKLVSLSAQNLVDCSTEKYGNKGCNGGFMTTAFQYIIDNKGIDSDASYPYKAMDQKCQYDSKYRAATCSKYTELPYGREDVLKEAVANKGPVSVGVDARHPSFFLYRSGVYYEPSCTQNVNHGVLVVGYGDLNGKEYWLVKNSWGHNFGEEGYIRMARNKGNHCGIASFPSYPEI

Consider `NC(=O)C(=O)C(Cc1ccccc1)NC(=O)c1cccnc1-n1ccc(-c2cccc3ccccc23)n1` (centres unmarked) [Example 110, N-[3-Amino-2,3-dioxo-1-(phenylmethyl)propyl]-2-(3-naphthalen-1-yl-1H-pyrazol-1-yl)pyridine-3-carboxamide], for which the “Sel cat. S (Ki(cathepsin S)/Ki(calpain) ratio)” value in assay [1] is “++ (Ki(cathepsin S)/Ki(calpain) ratio of ≧100)”. For the same compound, the Ki in assay [2] was ≤ 40 nM. For the same compound, in assay [3], the “Sel cat. L (Ki(cathepsin L)/Ki(calpain) ratio)” value was “++ (Ki(cathepsin L)/Ki(calpain) ratio of ≧50)”. Moreover, the “Sel cat. B (Ki(cathepsin B)/Ki(calpain) ratio)” value in assay [4] was “++ (Ki(cathepsin B)/Ki(calpain) ratio of ≧30)”. In assay [5], the “Sel cat. K (Ki(cathepsin K)/Ki(calpain) ratio)” value is listed as “++ (Ki(cathepsin K)/Ki(calpain) ratio of ≧30)”.

Consider `COc1ccc(CC(NC(=O)c2cccnc2-n2ccc(-c3ccc(F)cc3Cl)n2)C(=O)C(N)=O)cc1` (centres unmarked) [Example 111, N-(3-Amino-1-{[4-(methyloxy)phenyl]methyl}-2,3-dioxopropyl)-2-[3-(2-chloro-4-fluorophenyl)-1H-pyrazol-1-yl]pyridine-3-carboxamide], for which the “Sel cat. S (Ki(cathepsin S)/Ki(calpain) ratio)” value in assay [1] was “++ (Ki(cathepsin S)/Ki(calpain) ratio of ≧100)”. Further, the Ki in assay [2] was ≤ 40 nM. Also, the “Sel cat. L (Ki(cathepsin L)/Ki(calpain) ratio)” value in assay [3] is given as “++ (Ki(cathepsin L)/Ki(calpain) ratio of ≧50)”. For the same compound, in assay [4], the “Sel cat. B (Ki(cathepsin B)/Ki(calpain) ratio)” value was “++ (Ki(cathepsin B)/Ki(calpain) ratio of ≧30)”. The “Sel cat. K (Ki(cathepsin K)/Ki(calpain) ratio)” value in assay [5] is recorded as “++ (Ki(cathepsin K)/Ki(calpain) ratio of ≧30)”.

Consider `NC(=O)C(=O)C(Cc1ccccc1)NC(=O)c1cccnc1-n1ccc(-c2cc(Cl)ccc2Cl)n1` (centres unmarked) [Example 112, N-[3-Amino-2,3-dioxo-1-(phenylmethyl)propyl]-2-[3-(2,5-dichlorophenyl)-1H-pyrazol-1-yl]pyridine-3-carboxamide], for which the “Sel cat. S (Ki(cathepsin S)/Ki(calpain) ratio)” value in assay [1] is “++ (Ki(cathepsin S)/Ki(calpain) ratio of ≧100)”. In assay [2], the Ki was ≤ 40 nM. Moreover, the “Sel cat. L (Ki(cathepsin L)/Ki(calpain) ratio)” value in assay [3] is “++ (Ki(cathepsin L)/Ki(calpain) ratio of ≧50)”. For the same compound, the “Sel cat. B (Ki(cathepsin B)/Ki(calpain) ratio)” value in assay [4] is given as “++ (Ki(cathepsin B)/Ki(calpain) ratio of ≧30)”. Besides, in assay [5], the “Sel cat. K (Ki(cathepsin K)/Ki(calpain) ratio)” value is reported as “++ (Ki(cathepsin K)/Ki(calpain) ratio of ≧30)”.

For `NC(=O)C(=O)C(Cc1ccc(F)cc1)NC(=O)c1cccnc1-n1ccc(-c2ccc(Cl)cc2Cl)n1` (centres unmarked) [Example 114, N-{-3-Amino-1-[(4-fluorophenyl)methyl]-2,3-dioxopropyl}-2-[3-(2,4-dichlorophenyl)-1H-pyrazol-1-yl]pyridine-3-carboxamide], the “Sel cat. S (Ki(cathepsin S)/Ki(calpain) ratio)” value in assay [1] is on record as “++ (Ki(cathepsin S)/Ki(calpain) ratio of ≧100)”. Moreover, the Ki in assay [2] fell in the range of 40 to 100 nM. In addition, in assay [3], the “Sel cat. L (Ki(cathepsin L)/Ki(calpain) ratio)” value is “++ (Ki(cathepsin L)/Ki(calpain) ratio of ≧50)”. Also, the “Sel cat. B (Ki(cathepsin B)/Ki(calpain) ratio)” value in assay [4] is on record as “++ (Ki(cathepsin B)/Ki(calpain) ratio of ≧30)”. Besides, in assay [5], the “Sel cat. K (Ki(cathepsin K)/Ki(calpain) ratio)” value was “++ (Ki(cathepsin K)/Ki(calpain) ratio of ≧30)”.

Turning to `NC(=O)C(=O)C(Cc1ccccc1)NC(=O)c1cccnc1-n1ccc(-c2cccc(Cl)c2Cl)n1` (centres unmarked) [Example 115, N-[3-Amino-2,3-dioxo-1-(phenylmethyl)propyl]-2-[3-(2,3-dichlorophenyl)-1H-pyrazol-1-yl]pyridine-3-carboxamide], the “Sel cat. S (Ki(cathepsin S)/Ki(calpain) ratio)” value in assay [1] was “++ (Ki(cathepsin S)/Ki(calpain) ratio of ≧100)”. For the same compound, the Ki in assay [2] is ≤ 40 nM. For the same compound, in assay [3], the “Sel cat. L (Ki(cathepsin L)/Ki(calpain) ratio)” value is “++ (Ki(cathepsin L)/Ki(calpain) ratio of ≧50)”. Besides, the “Sel cat. B (Ki(cathepsin B)/Ki(calpain) ratio)” value in assay [4] is “++ (Ki(cathepsin B)/Ki(calpain) ratio of ≧30)”. Besides, in assay [5], the “Sel cat. K (Ki(cathepsin K)/Ki(calpain) ratio)” value is “++ (Ki(cathepsin K)/Ki(calpain) ratio of ≧30)”.

Regarding `NC(=O)C(=O)C(Cc1ccccc1)NC(=O)c1cccnc1-n1ccc(-c2c(F)cc(F)cc2F)n1` (centres unmarked) [Example 116, N-[3-Amino-2,3-dioxo-1-(phenylmethyl)propyl]-2-[3-(2,4,6-trifluorophenyl)-1H-pyrazol-1-yl]pyridine-3-carboxamide], in assay [1], the “Sel cat. S (Ki(cathepsin S)/Ki(calpain) ratio)” value is “++ (Ki(cathepsin S)/Ki(calpain) ratio of ≧100)”. Further, in assay [2], the Ki is ≤ 40 nM. In addition, the “Sel cat. L (Ki(cathepsin L)/Ki(calpain) ratio)” value in assay [3] is “++ (Ki(cathepsin L)/Ki(calpain) ratio of ≧50)”. For the same compound, the “Sel cat. B (Ki(cathepsin B)/Ki(calpain) ratio)” value in assay [4] is “++ (Ki(cathepsin B)/Ki(calpain) ratio of ≧30)”. In assay [5], the “Sel cat. K (Ki(cathepsin K)/Ki(calpain) ratio)” value is recorded as “+ (10≦Ki(cathepsin K)/Ki(calpain)<30)”.

For `COc1ccc(-c2ccn(-c3ncccc3C(=O)NC(Cc3ccccc3)C(=O)C(N)=O)n2)c(OC)c1` (centres unmarked) [Example 117, N-[3-Amino-2,3-dioxo-1-(phenylmethyl)propyl]-2-{3-[2,4-bis(methyloxy)phenyl]-1H-pyrazol-1-yl}pyridine-3-carboxamide], in assay [1], the “Sel cat. S (Ki(cathepsin S)/Ki(calpain) ratio)” value was “++ (Ki(cathepsin S)/Ki(calpain) ratio of ≧100)”. The Ki in assay [2] is ≤ 40 nM. For the same compound, in assay [3], the “Sel cat. L (Ki(cathepsin L)/Ki(calpain) ratio)” value is listed as “++ (Ki(cathepsin L)/Ki(calpain) ratio of ≧50)”. The “Sel cat. B (Ki(cathepsin B)/Ki(calpain) ratio)” value in assay [4] is listed as “++ (Ki(cathepsin B)/Ki(calpain) ratio of ≧30)”. Besides, the “Sel cat. K (Ki(cathepsin K)/Ki(calpain) ratio)” value in assay [5] was “++ (Ki(cathepsin K)/Ki(calpain) ratio of ≧30)”.

As to `NC(=O)C(=O)C(Cc1ccccc1)NC(=O)c1cccnc1-n1ccc(-c2ccc3c(c2)OC(F)(F)O3)n1` (centres unmarked) [Example 118, N-[3-Amino-2,3-dioxo-1-(phenylmethyl)propyl]-2-[3-(2,2-difluoro-1,3-benzodioxol-5-yl)-1H-pyrazol-1-yl]pyridine-3-carboxamide], in assay [1], the “Sel cat. S (Ki(cathepsin S)/Ki(calpain) ratio)” value was “++ (Ki(cathepsin S)/Ki(calpain) ratio of ≧100)”. The Ki in assay [2] was ≤ 40 nM. The “Sel cat. L (Ki(cathepsin L)/Ki(calpain) ratio)” value in assay [3] is “++ (Ki(cathepsin L)/Ki(calpain) ratio of ≧50)”. Moreover, the “Sel cat. B (Ki(cathepsin B)/Ki(calpain) ratio)” value in assay [4] is listed as “++ (Ki(cathepsin B)/Ki(calpain) ratio of ≧30)”. In addition, in assay [5], the “Sel cat. K (Ki(cathepsin K)/Ki(calpain) ratio)” value is on record as “+ (10≦Ki(cathepsin K)/Ki(calpain)<30)”.

Take `NC(=O)C(=O)C(Cc1ccccc1)NC(=O)c1cccnc1-n1ccc(-c2cccc3c2OC(F)(F)O3)n1` (centres unmarked) [Example 119, N-[3-Amino-2,3-dioxo-1-(phenylmethyl)propyl]-2-[3-(2,2-difluoro-1,3-benzodioxol-4-yl)-1H-pyrazol-1-yl]pyridine-3-carboxamide]: the “Sel cat. S (Ki(cathepsin S)/Ki(calpain) ratio)” value in assay [1] is reported as “++ (Ki(cathepsin S)/Ki(calpain) ratio of ≧100)”. Also, the Ki in assay [2] is ≤ 40 nM. The “Sel cat. L (Ki(cathepsin L)/Ki(calpain) ratio)” value in assay [3] is “++ (Ki(cathepsin L)/Ki(calpain) ratio of ≧50)”. The “Sel cat. B (Ki(cathepsin B)/Ki(calpain) ratio)” value in assay [4] is reported as “++ (Ki(cathepsin B)/Ki(calpain) ratio of ≧30)”. Besides, the “Sel cat. K (Ki(cathepsin K)/Ki(calpain) ratio)” value in assay [5] is “++ (Ki(cathepsin K)/Ki(calpain) ratio of ≧30)”.

Take `NC(=O)C(=O)C(Cc1ccccc1)NC(=O)c1cccnc1-n1ccc(-c2c(F)ccc(Cl)c2Cl)n1` (centres unmarked) [Example 120, N-[3-Amino-2,3-dioxo-1-(phenylmethyl)propyl]-2-[3-(2,3-dichloro-6-fluorophenyl)-1H-pyrazol-1-yl]pyridine-3-carboxamide]: the “Sel cat. S (Ki(cathepsin S)/Ki(calpain) ratio)” value in assay [1] is “++ (Ki(cathepsin S)/Ki(calpain) ratio of ≧100)”. In addition, the Ki in assay [2] was ≤ 40 nM. In assay [3], the “Sel cat. L (Ki(cathepsin L)/Ki(calpain) ratio)” value is on record as “+ (30≦Ki(cathepsin L)/Ki(calpain)<50)”. Besides, the “Sel cat. B (Ki(cathepsin B)/Ki(calpain) ratio)” value in assay [4] is listed as “++ (Ki(cathepsin B)/Ki(calpain) ratio of ≧30)”. Moreover, the “Sel cat. K (Ki(cathepsin K)/Ki(calpain) ratio)” value in assay [5] is on record as “++ (Ki(cathepsin K)/Ki(calpain) ratio of ≧30)”.
